Data reported in article PMC8156206, “Novel N,N′-Disubstituted Selenoureas as Potential Antioxidant and Cytotoxic Agents” (Antioxidants, 2021).
Like-named read-outs stand apart in the source and are kept apart here.

Experiments:
[1] = tested on: HCT-116 cells (colon); experiment: MTT cell viability assay, HCT-116; type: cell-based; details: Homo sapiens, read-out: IC50 HCT-116 (colon)
Procedure: (§1) Cell lines were purchased from the American Type Culture Collection (ATCC). MCF-7, HTB-54, BEAS-2B and 184B5 cell lines were grown in RPMI 1640 medium (Gibco) supplemented with 10% fetal bovine serum (FBS; Gibco), 100 units/mL penicillin, and […] streptomycin (Gibco). HT-29 and HCT-116 cell lines was cultured in McCoy’s 5A (Gibco), 10% FBS, 100 units/mL penicillin, and 100 μg/mL streptomycin. Cells were maintained at 37 °C and 5% CO2. Culture medium was replaced every three days.
(§2) A cell viability assay of each compound was carried out using an MTT assay. Each selenourea was dissolved in dimethyl sulfoxide (DMSO) at a concentration of 0.01 M. Serial dilutions were prepared with non-supplemented culture medium. Cytotoxic activity of each selenourea was determined at two different concentrations (10 and 50 µM) in MCF-7, HTB-54, and HT-29 cells. In addition, selected compounds were tested at seven different concentrations (0.1, 1, 5, 10, 25, 50, 100 µM) on MCF-7, HT-29, HCT-116, HTB-54, 184B5, and BEAS-2B cells. The number of passages before defrosting the cells was 3, and they were kept under culture up to a maximum of 15.
(§3) Briefly, 1 × 10^4 cells/well were grown in 96-well plates for 24 h. Then, these cells were incubated with either DMSO (negative control) at 5 µM or a different concentration of each tested selenourea for 48 h. A volume of 20 µL of MTT was added 150 min before the termination point to measure cellular viability. After this time, culture medium was removed. The resultant formazan crystals were dissolved in 50 µL of DMSO, and absorbance was measured at 570 nm. Results are expressed as IC50, the half maximal inhibitory concentration. This value was calculated using GraphPad Prism 7 software by nonlinear curve fitting. Furthermore, the selectivity index (SI) was calculated as the ratio of the IC50 values determined for the non-malignant and the tumoral cells (IC50 (184B5)/IC50 (MCF-7) or (IC50 (BEAS-2B)/IC50 (HTB-54). Data were obtained from at least three independent experiments performed in triplicates.

[2] = tested on: HTB-54 cells (lung adenocarcinoma); experiment: MTT cell viability assay, HTB-54; type: cell-based, human; details: for IC50 / viability at 10 µM / viability at 50 µM: Homo sapiens; for IC50: read-out: IC50 HTB-54 (lung); for viability at 10 µM / viability at 50 µM: read-out: cell viability, percentage of live cells
Procedure: as §1, §2, §3
(§4) The cytotoxic effects of synthesized compounds were evaluated against three human cancer cell lines: breast adenocarcinoma (MCF-7), lung adenocarcinoma (HTB-54), and colon carcinoma (HT-29), using a 3-[4,5-dimethylthiazol-2-yl]-2,5-diphenyltetrazolium bromide (MTT) assay. Firstly, the compounds were screened at two doses (50 and 10 µM) and after 48 h of treatment. The results are summarized in Figure 4 and are presented as percentages of growth inhibition related to control.

[3] = tested on: HT-29 cells (colon carcinoma); experiment: MTT cell viability assay, HT-29; type: cell-based; details: Homo sapiens; for IC50: read-out: IC50 HT-29 (colon); for viability at 10 µM / viability at 50 µM: read-out: cell viability, percentage of live cells
Procedure: as §1, §2, §3, §4

[4] = tested on: MCF-7 cells (breast adenocarcinoma); experiment: MTT cell viability assay, MCF-7; type: cell-based, human; details: for IC50 / viability at 10 µM / viability at 50 µM: Homo sapiens; for IC50: read-out: IC50 MCF-7 (breast); for viability at 10 µM / viability at 50 µM: read-out: cell viability, percentage of live cells; for SI (selectivity index) breast: IC50 (184B5)/IC50 (MCF-7)
Procedure: as §1, §2, §3, §4

[5] = tested on: 184B5 cells (breast non-malignant derived cell line); experiment: MTT cell viability assay, 184B5; type: cell-based; details: Homo sapiens, read-out: IC50 184B5 (breast, non-malignant)
Procedure: as §1, §2, §3

[6] = DPPH radical scavenging assay; details: for DPPH radical scavenging kinetics: 0.03 mg/mL, time-point 0 min
Procedure: (§5) From all the methods available for the prediction of the antioxidant properties, DPPH^● and ABTS^●+ assays were chosen according to their simplicity, accessibility, and effectiveness for a fast prediction of radical scavenging activities in vitro. The radical scavenging capacity of the novel selenoureas was determined by DPPH^● and ABTS^●^+ assays. Measurements were recorded on a BioTeck PowerWave XS spectrophotometer (BioTeck Instruments, Winooski (VT), USA) and the data were collected using KCJunior software (BioTeck Instruments, Winooski (VT), USA).
A DPPH assay was performed, as described by Svinyarov. Stock solutions of 1 mg/mL were initially prepared for each selenourea in methanol and this solution was used for the preparation of the different concentrations employed in the assay. Ascorbic acid (Asc) was used as positive control due to the literature reports that this derivative is a potent antioxidant and radical scavenger. A volume of 100 µL from a previously prepared stock solution (preserved in dark and daily prepared) of DPPH (100 µM) in methanol were added to 100 µL of the methanolic selenoureas solutions prepared previously, and the antioxidant activity these compounds was assessed by its ability to decolorize DPPH● radical (purple color in methanol) to DPPHH (colorless). Thus, radical scavenging activity was estimated by the decrease in the absorbance at 517 nm. Determinations were recorded at different time-points. All the measurements were carried out in triplicate. Results are expressed as the percentage of the radicals scavenged, calculated using the following formula:(1) % DPPH radical scavenging=Acontrol − Asample/Acontrol × 100 where Acontrol refers to the absorbance of the negative control and Asample refers to the absorbance of the tested compounds. Results are expressed as percentage of DPPH radical scavenging ± SD.
In order to determine the radical scavenging of these newly synthesized selenourea derivatives, the DPPH assay was firstly employed. Measurements were performed at four different concentrations ranging from 0.0003 to 0.03 mg/mL, and collected at time-points between 0 min and 120 min (Figures S81–S100). Results are presented as the percentage of inhibition for DPPH radical scavenging activity.

[7] = tested on: BEAS-2B cells (lung non-malignant derived cell line); experiment: MTT cell viability assay, BEAS-2B; type: cell-based; details: Homo sapiens, 48 h, mean ± SD
Procedure: as §1, §2, §3

[8] = ABTS radical scavenging assay; details: 0.003 mg/mL, 60 min
Procedure: as §5
As well as DPPH, ABTS radical scavenging assay is a colorimetric method. ABTS (2,2′-azino-bis(3-ethylbenzothiazoline-6-sulfonic acid) was dissolved in deionized water at 1 mg/mL and oxidized to ABTS^●+ with potassium persulfate (2.45 mM final concentration). This oxidation process is not instantaneous, and the reaction mixture was kept in the dark overnight at room temperature. After ABTS^●+ radical was generated, the ABTS^●+ solution was diluted with 50% ethanol until an absorbance of 0.70 ± 0.02 at 734 nm for measurements was achieved. Stock solution of 1 mg/mL in absolute ethanol was prepared for each selenourea, and different dilutions were prepared to reach the final concentration, when 20 µL of this solution were added to 180 µL of the diluted ABTS^●+. The absorbance at 734 nm was recorded using 50% ethanol as blank. Trolox and Asc were used as positive controls. All determinations were carried out in triplicate. Same time intervals as in the DPPH assay were also measured. The ability to scavenge ABTS^●+ was calculated using the following formula:(2) % ABTS radical scavenging=Acontrol − Asample/Acontrol × 100 where Acontrol refers to the absorbance of the negative control and Asample refers to the absorbance of the tested compounds. The results are expressed as percentage of ABTS radical scavenging ± SD.
In order to confirm the antioxidant activity of the selenoureas, we performed an additional ABTS (2,2′-azino-bis(3-ethylbenzothiazoline-6-sulfonic acid) radical scavenging assay. Following the results obtained in the DPPH assay, this experiment was performed at 0.03 and 0.003 mg/mL. Measurements were recorded after 0′, 6′ and 60′ of incubation with ABTS. For comparison purposes, Trolox and ascorbic acid were used as references. The remarkable results are summarized in Figure 3.

[9] = Stability of the selenoureas before screening; type: physicochemical

SMILES | IC50 ([2]; HTB-54, 48 h, MTT, mean ± SD) | viability at 10 µM ([2]; HTB-54, 10 µM, 48 h, MTT) | viability at 50 µM ([2]; HTB-54, 50 µM, 48 h, MTT) | IC50 ([3]; HT-29, 48 h, MTT, mean ± SD) | viability at 10 µM ([3]; HT-29, 10 µM, 48 h, MTT) | viability at 50 µM ([3]; HT-29, 50 µM, 48 h, MTT) | IC50 ([4]; MCF7, 48 h, MTT, mean ± SD) | viability at 10 µM ([4]; MCF7, MCF-7, 10 µM, 48 h, MTT) | viability at 50 µM ([4]; MCF7, MCF-7, 50 µM, 48 h, MTT) | melting point | stability of the compound before screening [9] | further results
Clc1ccc(NC(=[Se])NCc2ccco2)cc1 [Compound 1d] | > 10 µM | 52.2% | 27.3% | 8.07 ± 3.77 µM | 48.6% | 35% | > 10 µM | 78.2% | 27.9% | 128 °C |  | IC50 ([1]; HCT-116, 48 h, MTT, mean ± SD): 7.8 ± 0.56 µM
[Se]=C(NCc1nccs1)Nc1ccccc1 [Compound 2a] | > 10 µM | 51.1% | 45.7% | > 10 µM | 79.7% | 47.3% | 9.16 ± 3.49 µM | 41% | 42.8% | 149 °C |  | SI (selectivity index) breast [4]: 1.20; IC50 ([5]; 184B5, 48 h, MTT, mean ± SD): 11 ± 0.73 µM; DPPH radical scavenging kinetics [6]: reaching the maximum activity at time-point 0′
Clc1ccc(NC(=[Se])NCc2nccs2)cc1 [Compound 2d] | 8.65 ± 0.29 µM | 45.8% | 37.2% | > 10 µM | 77.2% | 67.1% | > 10 µM | 59.7% | 35% | 165 °C |  | SI (selectivity index) lung ([2]; IC50 (BEAS-2B)/IC50 (HTB-54)): 0.60; IC50 [7]: 5.22 ± 0.07 µM; DPPH radical scavenging capacity compared with ascorbic acid ([6]; at lower concentrations): greater radical scavenging capacity than ascorbic acid
O=c1ccc2cc(NC(=[Se])Nc3ccccc3)ccc2o1 [Compound 3a] | > 10 µM | 66% | 10.3% | 6.49 ± 1.58 µM | 47.5% | 30.2% | > 10 µM | 53.5% | 29.8% | 169 °C |  | IC50 ([1]; HCT-116, 48 h, MTT, mean ± SD): 5.86 ± 0.52 µM; DPPH radical scavenging kinetics [6]: reaching the maximum activity at time-point 0′
N#Cc1ccc(NC(=[Se])Nc2ccc3oc(=O)ccc3c2)cc1 [Compound 3e] |  | 60.8% | 17.8% |  | 66.6% | 32.2% |  | 59.7% | 31.1% | 140 °C |  | ABTS radical scavenging activity compared with Trolox [8]: significant lower radical scavenging activity than Trolox; DPPH radical scavenging kinetics [6]: reaching the maximum activity at time-point 0′
CCCCNC(=[Se])Nc1ccccc1 [Compound 4a] |  |  |  |  |  |  |  |  |  | 69 °C | decomposed before screening | 
CCCCNC(=[Se])Nc1ccc(C)cc1 [Compound 4b] |  |  |  |  |  |  |  |  |  | 46 °C | decomposed before screening | 
CCCCNC(=[Se])Nc1ccc(OC)cc1 [Compound 4c] |  |  |  |  |  |  |  |  |  | 89 °C | decomposed before screening | 
CCCCCCNC(=[Se])Nc1ccccc1 [Compound 5a] |  |  |  |  |  |  |  |  |  | 59 °C | decomposed before screening | 
CCCCCCNC(=[Se])Nc1ccc(C)cc1 [Compound 5b] |  |  |  |  |  |  |  |  |  | 88 °C | decomposed before screening | 
[Se]=C(Nc1ccccc1)NC12CC3CC(CC(C3)C1)C2 [Compound 6a, N´-adamantyl-N-(phenyl)selenourea] |  |  |  |  |  |  |  |  |  | 161 °C |  | IC50 ([1]; HCT-116, 48 h): 5.69 ± 0.71 µM; IC50 ([2]; HTB-54, 48 h): > 10 µM; viability at 10 µM ([2]; HTB-54, 48 h): 51.9%; viability at 50 µM ([2]; HTB-54, 48 h): 15.7%; IC50 ([3]; HT-29, 48 h): 5.03 ± 3.06 µM; viability at 10 µM ([3]; HT-29, 48 h): 43%; viability at 50 µM ([3]; HT-29, 48 h): 33.9%; IC50 ([4]; MCF7, 48 h): 9.88 ± 1.46 µM; viability at 10 µM ([4]; MCF7, 48 h): 54.3%; viability at 50 µM ([4]; MCF7, 48 h): 18.2%; SI (selectivity index) breast [4]: 2.25; IC50 ([5]; 184B5, 48 h): 22.2 ± 4.07 µM; ABTS radical scavenging activity compared with Trolox [8]: significant lower radical scavenging activity than Trolox
